Source: ChEMBL document CHEMBL3425470, “Discovery of imidazopyridine derivatives as highly potent respiratory syncytial virus fusion inhibitors” (ACS Med Chem Lett, 2015)
In brackets after ≈: the same amount, converted by molar mass.

Experiments:
[1] = Antiviral activity against Respiratory syncytial virus A infected in human Hep2 cells assessed as reduction of virus-induced cytopathic effect after 6 days by CCK-8 assay; assay type: functional, cell-based, Respiratory syncytial virus type A; settings: HEp-2, 144 h
[2] = Cytotoxicity against human Hep2 cells assessed as cell viability after 6 days by CCK-8 assay
[3] = Solubility of the compound in phosphate buffer at pH 6.5 after overnight incubation by LYSA method
[4] = Clearance in human liver microsomes at 1 uM
[5] = Clearance in mouse liver microsomes at 1 uM
Cytochrome P450 3A4 = Cytochrome P450 3A4 (Homo sapiens, UniProt P08684); assay: Inhibition of CYP3A4 in human liver microsomes by LC-MS/MS analysis
Sequence of Cytochrome P450 3A4 (P08684 whole entry): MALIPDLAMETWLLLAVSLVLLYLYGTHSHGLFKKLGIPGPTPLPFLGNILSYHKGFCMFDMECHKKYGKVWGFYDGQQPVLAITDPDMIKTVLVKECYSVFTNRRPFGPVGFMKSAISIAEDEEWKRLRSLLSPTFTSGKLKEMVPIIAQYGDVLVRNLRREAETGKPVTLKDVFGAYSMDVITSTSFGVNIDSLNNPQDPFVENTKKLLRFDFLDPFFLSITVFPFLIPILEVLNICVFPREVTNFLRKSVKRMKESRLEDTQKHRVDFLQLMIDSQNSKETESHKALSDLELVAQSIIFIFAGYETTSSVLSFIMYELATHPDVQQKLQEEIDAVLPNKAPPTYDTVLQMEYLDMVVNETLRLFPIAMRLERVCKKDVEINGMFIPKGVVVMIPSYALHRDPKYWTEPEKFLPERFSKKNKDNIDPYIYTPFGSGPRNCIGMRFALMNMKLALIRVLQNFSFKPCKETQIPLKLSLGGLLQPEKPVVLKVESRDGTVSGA

Cytochrome P450 2C9 = Cytochrome P450 2C9 (Homo sapiens, UniProt P11712); assay: Inhibition of CYP2C9 in human liver microsomes by LC-MS/MS analysis
Sequence of Cytochrome P450 2C9 (P11712 whole entry): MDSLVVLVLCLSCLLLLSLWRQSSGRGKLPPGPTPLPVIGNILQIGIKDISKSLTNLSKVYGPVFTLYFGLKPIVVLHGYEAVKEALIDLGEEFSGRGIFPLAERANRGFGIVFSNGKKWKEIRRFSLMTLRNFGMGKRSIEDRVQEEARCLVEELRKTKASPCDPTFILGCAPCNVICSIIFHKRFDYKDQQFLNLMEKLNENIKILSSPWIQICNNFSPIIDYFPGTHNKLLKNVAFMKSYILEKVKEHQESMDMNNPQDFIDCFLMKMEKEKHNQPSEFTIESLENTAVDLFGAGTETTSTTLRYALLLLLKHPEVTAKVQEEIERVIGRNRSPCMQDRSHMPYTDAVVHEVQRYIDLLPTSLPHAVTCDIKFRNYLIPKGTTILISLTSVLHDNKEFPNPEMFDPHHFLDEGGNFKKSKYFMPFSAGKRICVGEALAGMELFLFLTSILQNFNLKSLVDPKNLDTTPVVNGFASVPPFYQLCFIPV

Cytochrome P450 2D6 = Cytochrome P450 2D6 (Homo sapiens, UniProt P10635); assay: Inhibition of CYP2D6 in human liver microsomes by LC-MS/MS analysis
Sequence of Cytochrome P450 2D6 (P10635 whole entry): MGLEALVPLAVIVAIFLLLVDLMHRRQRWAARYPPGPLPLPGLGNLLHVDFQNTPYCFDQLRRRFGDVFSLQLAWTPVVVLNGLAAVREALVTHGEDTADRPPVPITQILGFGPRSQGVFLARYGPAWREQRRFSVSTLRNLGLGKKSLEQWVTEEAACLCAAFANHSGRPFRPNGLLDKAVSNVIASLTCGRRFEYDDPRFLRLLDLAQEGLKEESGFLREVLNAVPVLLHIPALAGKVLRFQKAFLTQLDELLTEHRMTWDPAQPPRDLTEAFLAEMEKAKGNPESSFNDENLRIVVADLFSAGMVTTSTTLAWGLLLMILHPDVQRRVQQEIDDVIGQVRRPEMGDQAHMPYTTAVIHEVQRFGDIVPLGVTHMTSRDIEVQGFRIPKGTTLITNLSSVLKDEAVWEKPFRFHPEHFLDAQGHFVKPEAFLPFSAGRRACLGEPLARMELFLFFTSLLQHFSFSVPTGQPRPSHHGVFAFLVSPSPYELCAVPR

in vitro = settings: PAMPA
Description: Permeability of the compound at 150 uM by PAMPA

Structure (SMILES)	EC50 [1] [nM]	CC50 at 144 h ([2]; Hep2 cells) [nM]	other results
O=C(O)/C=C/c1c(Cn2c(=O)n(C3CC3)c3ccncc32)nc2cc(Cl)ccn12	207	> 100000	
Cc1ccn2c(CCCCO)c(Cn3c(=O)n(C4CC4)c4ccncc43)nc2c1	6	> 100000	
O=c1n(Cc2nc3cc(Cl)ccn3c2CNCCO)c2cnccc2n1C1CC1	683	> 100000	
CS(=O)(=O)CCc1c(Cn2c(=O)n(C3CC3)c3ccncc32)nc2cc(Cl)ccn12	6	> 100000	solubility [3]: 59 µg/mL (≈ 132 µM); CLhep predicted at 1 µM [4]: 2.5 mL/min/kg; CLhep predicted at 1 µM [5]: 35 mL/min/kg; IC50 (Cytochrome P450 3A4): > 50000 nM; IC50 (Cytochrome P450 2C9): > 50000 nM; IC50 (Cytochrome P450 2D6): > 50000 nM; Papp at 150 µM (in vitro): 3.6 ×10⁻⁶ cm/s
Cc1ccc2nc(Cn3c(=O)n(C4CC4)c4ccncc43)c(CCCCO)n2c1	217	> 100000	
O=C(O)CCc1c(Cn2c(=O)n(C3CC3)c3ccncc32)nc2cc(Cl)ccn12	53		CC50 at 144 h ([2]; hep-2): > 100000 nM; solubility [3]: 541 µg/mL (≈ 1310 µM); CLhep predicted at 1 µM [5]: 9.1 mL/min/kg; IC50 (Cytochrome P450 3A4): > 50000 nM; IC50 (Cytochrome P450 2C9): > 50000 nM; IC50 (Cytochrome P450 2D6): > 50000 nM; Papp at 150 µM (in vitro): 0.3 ×10⁻⁶ cm/s
O=c1n(Cc2nc3ccc(C(F)(F)F)cn3c2CCCCO)c2cnccc2n1C1CC1	2890	> 100000	
O=c1n(Cc2nc3ccccn3c2CCCCO)c2cnccc2n1C1CC1	17	> 100000	
O=c1n(Cc2cn3ccc(Cl)cc3n2)c2cnccc2n1C1CC1	3060	22300	
O=c1n(Cc2nc3cc(Cl)ccn3c2CCCCO)c2cnccc2n1C1CC1	7	> 100000	solubility [3]: 20 µg/mL (≈ 48.6 µM); CLhep predicted at 1 µM [4]: 11.5 mL/min/kg; CLhep predicted at 1 µM [5]: 80 mL/min/kg; Papp at 150 µM (in vitro): 3.1 ×10⁻⁶ cm/s
O=c1n(Cc2nc3cc(Cl)ccn3c2NC2CCCCC2)c2cnccc2n1C1CC1	72	> 100000	
O=c1n(Cc2nc3ccccc3n2CCCCO)c2cnccc2n1C1CC1	28		
O=c1n(Cc2nc3cc(F)ccn3c2CCCCO)c2cnccc2n1C1CC1	23	> 100000	
CCc1ccn2c(CCCCO)c(Cn3c(=O)n(C4CC4)c4ccncc43)nc2c1	7	> 100000	
CCCCNc1c(Cn2c(=O)n(C3CC3)c3ccncc32)nc2cc(Cl)ccn12	41	> 100000	
CS(=O)(=O)c1ccc(-c2c(Cn3c(=O)n(C4CC4)c4ccncc43)nc3cc(Cl)ccn23)cc1	89	> 100000	
O=c1n(Cc2nc3ccc(F)cn3c2CCCCO)c2cnccc2n1C1CC1	96	> 100000	
O=C(O)c1c(Cn2c(=O)n(C3CC3)c3ccncc32)nc2cc(Cl)ccn12	25500	> 100000	
O=c1n(Cc2nc3ccc(Cl)cn3c2CCCCO)c2cnccc2n1C1CC1	422	> 100000	
O=c1n(Cc2nc3cc(Cl)ccn3c2CO)c2cnccc2n1C1CC1	1930	> 100000	
O=c1n(Cc2nc3cc(Cl)ccn3c2NCCN2CCOCC2)c2cnccc2n1C1CC1	83	> 100000	
N#Cc1c(Cn2c(=O)n(C3CC3)c3ccncc32)nc2cc(Cl)ccn12	86	22500	
O=c1n(Cc2nc3cc(C(F)(F)F)ccn3c2CCCCO)c2cnccc2n1C1CC1	217	> 100000	
O=C(CCc1c(Cn2c(=O)n(C3CC3)c3ccncc32)nc2cc(Cl)ccn12)NCCO	10	> 100000	solubility [3]: 107 µg/mL (≈ 235 µM); CLhep predicted at 1 µM [4]: 2.9 mL/min/kg; CLhep predicted at 1 µM [5]: 47 mL/min/kg; Papp at 150 µM (in vitro): 0.96 ×10⁻⁶ cm/s
CCS(=O)(=O)CCc1c(Cn2c(=O)n(C3CC3)c3ccncc32)nc2cc(Cl)ccn12	3		CC50 at 144 h ([2]; hep-2): > 100000 nM; solubility [3]: 46 µg/mL (≈ 100 µM); CLhep predicted at 1 µM [4]: 4.6 mL/min/kg; CLhep predicted at 1 µM [5]: 62 mL/min/kg; IC50 (Cytochrome P450 3A4): > 50000 nM; IC50 (Cytochrome P450 2C9): > 50000 nM; IC50 (Cytochrome P450 2D6): > 50000 nM; Papp at 150 µM (in vitro): 2.6 ×10⁻⁶ cm/s
O=C(NCCO)c1c(Cn2c(=O)n(C3CC3)c3ccncc32)nc2cc(Cl)ccn12	2230	> 100000	
CS(=O)(=O)NC(=O)CCc1c(Cn2c(=O)n(C3CC3)c3ccncc32)nc2cc(Cl)ccn12	46	> 100000	
NC(=O)CCc1c(Cn2c(=O)n(C3CC3)c3ccncc32)nc2cc(Cl)ccn12	5	> 100000	solubility [3]: 87 µg/mL (≈ 212 µM); CLhep predicted at 1 µM [4]: 13.5 mL/min/kg; CLhep predicted at 1 µM [5]: 59 mL/min/kg; Papp at 150 µM (in vitro): 2.5 ×10⁻⁶ cm/s
CS(=O)(=O)CCNC(=O)c1c(Cn2c(=O)n(C3CC3)c3ccncc32)nc2cc(Cl)ccn12	82	> 100000	
